Results reported in PubChem BioAssay AID1963866 (Molecular Pharmacology Branch, DTP, NCI, 2024).

Tested on: PDC KRAS tumor spheroids with HUVEC/MSC, viability
Assay: Anticancer human tumor 349418-098-R-PDC patient-derived lung adenocarcinoma cell line growth inhibition [KRAS2]
Settings: for IC50: curve of first compound; for viability, T/C: stronger effect = lower value
Method in brief: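 Combination screen of spheroid viability in tumor-cell co-cultures with endothelial (HUVEC) and mesenchymal stem cell stroma. Each agent was tested in half-log dilutions, topping at clinical Cmax or at 10 microM without a known Cmax.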

[1] = second compound 0.1 µM, first compound 0.01 µM
[2] = second compound 0.1 µM, first compound 0.0316 µM
[3] = second compound 0.1 µM, first compound 0.1 µM
[4] = second compound 0.1 µM, first compound 0.316 µM
[5] = second compound 0.1 µM, first compound 1 µM
[6] = second compound 0.1 µM, first compound 3.16 µM
[7] = second compound 0.316 µM, first compound 0.01 µM
[8] = second compound 0.316 µM, first compound 0.0316 µM
[9] = second compound 0.316 µM, first compound 0.1 µM
[10] = second compound 0.316 µM, first compound 0.316 µM
[11] = second compound 0.316 µM, first compound 1 µM
[12] = second compound 0.316 µM, first compound 3.16 µM
[13] = second compound 1 µM, first compound 0.01 µM
[14] = second compound 1 µM, first compound 0.0316 µM
[15] = second compound 1 µM, first compound 0.1 µM
[16] = second compound 1 µM, first compound 0.316 µM
[17] = second compound 1 µM, first compound 1 µM
[18] = second compound 1 µM, first compound 3.16 µM
[19] = second compound 3.16 µM, first compound 0.01 µM
[20] = second compound 3.16 µM, first compound 0.0316 µM
[21] = second compound 3.16 µM, first compound 0.1 µM
[22] = second compound 3.16 µM, first compound 0.316 µM
[23] = second compound 3.16 µM, first compound 1 µM
[24] = second compound 3.16 µM, first compound 3.16 µM
[25] = second compound 10 µM, first compound 0.01 µM
[26] = second compound 10 µM, first compound 0.0316 µM
[27] = second compound 10 µM, first compound 0.1 µM
[28] = second compound 10 µM, first compound 0.316 µM
[29] = second compound 10 µM, first compound 1 µM
[30] = second compound 10 µM, first compound 3.16 µM
[31] = second compound 0.1 µM, first compound 10 µM
[32] = second compound 0.316 µM, first compound 10 µM
[33] = second compound 1 µM, first compound 10 µM
[34] = second compound 3.16 µM, first compound 10 µM
[35] = second compound 10 µM, first compound 10 µM
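Note: spheroids exposed to compounds for seven days before readout.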

Row | SMILES | IC50 (second compound 0.1 µM) | IC50 (second compound 0.316 µM) | IC50 (second compound 1 µM) | IC50 (second compound 3.16 µM) | IC50 (second compound 10 µM) | viability, T/C [2] | viability, T/C [3] | viability, T/C [4] | viability, T/C [5] | viability, T/C [8] | viability, T/C [9] | viability, T/C [10] | viability, T/C [11] | viability, T/C [14] | viability, T/C [15] | viability, T/C [16] | viability, T/C [17] | viability, T/C [20] | viability, T/C [21] | viability, T/C [22] | further results
1 | CC1COCCN1c1cc(-c2ccnn2C)c2ccnc(-c3ccn[nH]3)c2n1 (stereo not given) + COc1cc2nc(C)nc(NC(C)c3cc(N)cc(C(F)(F)F)c3)c2cc1OC1CCOC1 | < 10 nM | 43.8 nM | 48.5 nM | 42.7 nM | < 10 nM | 8.3% | 5.7% | 5.49% | 6% | 65.5% | 10.9% | 6.49% | 5.47% | 71.2% | 13.9% | 11.7% | 7.84% | 63.1% | 12.8% | 7.88% | viability, T/C [1]: 5.36%; viability, T/C [6]: 5.72%; viability, T/C [7]: 170%; viability, T/C [12]: 7.16%; viability, T/C [13]: 167%; viability, T/C [18]: 7.72%; viability, T/C [19]: 146%; viability, T/C [23]: 6.55%; viability, T/C [24]: 9.36%; viability, T/C [25]: 36.6%; viability, T/C [26]: 14.1%; viability, T/C [27]: 8.5%; viability, T/C [28]: 6.86%; viability, T/C [29]: 7.4%; viability, T/C [30]: 5.53%
2 | CC1OCC2(CCN(c3cnc(Sc4ccnc(N)c4Cl)c(N)n3)CC2)C1N (stereo not given) + COc1cc2nc(C)nc(NC(C)c3cc(N)cc(C(F)(F)F)c3)c2cc1OC1CCOC1 | > 10000 nM | > 10000 nM | > 10000 nM | > 10000 nM | < 31.6 nM | 101% | 77.2% | 54.4% | 97.6% | 114% | 80.8% | 54.5% | 95.3% | 124% | 99.3% | 67.7% | 72.1% | 93.8% | 77.7% | 46% | viability, T/C [6]: 85.6%; viability, T/C [31]: 62.7%; viability, T/C [12]: 95.3%; viability, T/C [32]: 77.8%; viability, T/C [18]: 80%; viability, T/C [33]: 74.1%; viability, T/C [23]: 62.6%; viability, T/C [24]: 86.7%; viability, T/C [34]: 57.1%; viability, T/C [26]: 42.8%; viability, T/C [27]: 29.8%; viability, T/C [28]: 18.9%; viability, T/C [29]: 24.1%; viability, T/C [30]: 35.3%; viability, T/C [35]: 19.2%
3 | CCN1CCN(Cc2ccc(Nc3ncc(F)c(-c4cc(F)c5nc(C)n(C(C)C)c5c4)n3)nc2)CC1 + COc1cc2nc(C)nc(NC(C)c3cc(N)cc(C(F)(F)F)c3)c2cc1OC1CCOC1 | < 3.16 nM | 5.01 nM | 5.63 nM | < 3.16 nM | < 3.16 nM | 25.5% | 20.2% | 14.2% | 5.42% | 16.6% | 16.1% | 13.6% | 4.29% | 14.2% | 13.4% | 10.5% | 4.38% | 14.5% | 11.7% | 8.46% | viability, T/C (second compound 0.1 µM, first compound 0.00316 µM): 49.7%; viability, T/C [1]: 25.8%; viability, T/C (second compound 0.316 µM, first compound 0.00316 µM): 61.8%; viability, T/C [7]: 33%; viability, T/C (second compound 1 µM, first compound 0.00316 µM): 69.3%; viability, T/C [13]: 31.1%; viability, T/C (second compound 3.16 µM, first compound 0.00316 µM): 40.8%; viability, T/C [19]: 25%; viability, T/C [23]: 1.57%; viability, T/C (second compound 10 µM, first compound 0.00316 µM): 11.7%; viability, T/C [25]: 8.02%; viability, T/C [26]: 4.11%; viability, T/C [27]: 2.43%; viability, T/C [28]: 0.61%; viability, T/C [29]: 0.15%
4 | CCNC(=O)CC1N=C(c2ccc(Cl)cc2)c2cc(OC)ccc2-n2c(C)nnc21 (stereo not given) + COc1cc2nc(C)nc(NC(C)c3cc(N)cc(C(F)(F)F)c3)c2cc1OC1CCOC1 | 93 nM | 106 nM | 99 nM | 56.5 nM | < 31.6 nM | 80% | 48% | 20.6% | 7.27% | 105% | 51.4% | 21.9% | 7.39% | 85.2% | 49.9% | 16.4% | 6.15% | 65.5% | 34.8% | 13.5% | viability, T/C [6]: 2.39%; viability, T/C [31]: 0.58%; viability, T/C [12]: 2.09%; viability, T/C [32]: 0.7%; viability, T/C [18]: 1.76%; viability, T/C [33]: 0.68%; viability, T/C [23]: 5.23%; viability, T/C [24]: 1.41%; viability, T/C [34]: 0.77%; viability, T/C [26]: 17%; viability, T/C [27]: 10.3%; viability, T/C [28]: 6.19%; viability, T/C [29]: 1.96%; viability, T/C [30]: 0.42%; viability, T/C [35]: 0.33%
5 | Cn1nccc1Nc1nccc(-c2cc3c(s2)C(C)(C)N(CCN2CCOCC2)C3=O)n1 + COc1cc2nc(C)nc(NC(C)c3cc(N)cc(C(F)(F)F)c3)c2cc1OC1CCOC1 | 52.4 nM | 37.4 nM | 36.3 nM | < 31.6 nM | < 31.6 nM | 71.1% | 22.4% | 12.5% | 7.65% | 55.6% | 19% | 12.2% | 6.27% | 53.4% | 24.2% | 8.8% | 7.31% | 41.8% | 19.1% | 7.42% | viability, T/C [6]: 6.07%; viability, T/C [31]: 4.14%; viability, T/C [12]: 6.54%; viability, T/C [32]: 4.93%; viability, T/C [18]: 5.44%; viability, T/C [33]: 4.32%; viability, T/C [23]: 5.91%; viability, T/C [24]: 4.66%; viability, T/C [34]: 4.79%; viability, T/C [26]: 15.1%; viability, T/C [27]: 7.62%; viability, T/C [28]: 4.31%; viability, T/C [29]: 3.93%; viability, T/C [30]: 2.92%; viability, T/C [35]: 2.13%
